Test results: patent US20030176689A1, “Inhibitors of hepatitis C virus protease” (priority 2001, published 2003)
Square brackets hold non-standard residues; d marks the D form. Ends that are not written are not given here. Peptide text beside a SMILES is read from it. Cha = N[C@@H](CC1CCCCC1)C(=O)O; Pen = CC(C)(S)[C@H](N)C(=O)O

How the values were obtained:
HCV NS3 protease domain = biological target: T1, HCV NS3 protease domain (Hepatitis C virus genotype 1a, UniProt P27958); assay: FAC-MS (frontal affinity chromatography with in-line MS) binding to immobilized NS3
T1 construct: immobilization of the NS3 protease domain on streptavidin coated beads; made in house; host or cells: E. coli
Source text: An assay using frontal affinity chromatography (FAC) with an in-line mass spectrometer (MS) as described by Schriemer et al. 1998 Agnew. Chem. Int. Ed. 37, 3383-3387 (referred to as FAC-MS) was adapted to identify NS3 protease inhibitors. Briefly, a HCV NS3 protease domain was cloned into a site in a vector that allows for the recombinant NS3 protein to be biotinylated when expressed in E. coli. This provides for immobilization of the NS3 protease domain on streptavidin coated beads which are packed into a miniaturized column. The column is connected in-line to a mass spectrometer. This arrangement facilitates assaying combinatorial compounds individually from a library of peptides for activity in binding the immobilized NS3 protease domain. As the library is continually infused through the column, each compound produces a sigmoidal curve as its elution profile.
The inventors first examined the ability of mutant NS4A peptides to bind to NS3 using the FAC-MS assay described in Example 1. The sequence of the peptides described here is described by the wild-type residue modified, the position of the residue in the wildtype NS4A polypeptide, and the residue substituted at that position. […] “Pen” refers to Penacillamine; “chA” refers to β-cyclohexylalanine; “t” refers to “tert” (so that, for example, “t-L” refers to tert-leucine. […]

NS3 [1] = biological target: T2, NS3 (Hepatitis C virus genotype 1a, UniProt P27958); assay: Activation of NS3 by mutant NS4A peptides using 5A-pNA as the substrate; type: biochemical, HCV; conditions: for kcat: substrate 5A-pNA, extrapolated to infinite NS4A concentration
Procedure: (§1) Binding of the peptides was then analyzed by enzyme kinetics to detect whether the mutated NS4A peptides activated NS3-catalysed cleavage of substrates individually. Two NS3 substrates were used: 5ApNA (which contains the P side residues (six of them) of the substrate linked to para-nitroaniline) and 5A/5B (which is the natural cleavage junction that is found between the NS5A and NS5B proteins) using conventional methods (see, e.g., Landro et. al. 1997, Biochemistry 36 p9340-9348; and “Enzyme Kinetics” by Irwin Segel pub: Wiley and Sons, New York 1975 Chapter 5). Values in the tables were obtained by extrapolating the Km and kcat values obtained for substrates at several concentrations of NS4A mutant peptides to infinite NS4A concentration. The Km and kcat values were obtained from double reciprocal plots of initial velocity measurements made at several concentrations of substrate and a constant NS4Aconcentration. Peptide concentrations used in calculations in Table 3 are based on those supplied by the facility that synthesized the peptides at the inventors' direction.

NS3 [2] = biological target: T2, NS3; assay: Activation of NS3 by mutant NS4A peptides using 5A/5B as the substrate; type: biochemical, HCV; conditions: substrate 5A/5B; NS3 batch used for wild-type and V23 mutant peptides
Procedure: as §1

HCV = conditions: PBMCs from an HCV-infected patient, 4 days, NS3 Western blot; preliminary, first experiment
Procedure: This induces production of HCV in these cells. The PBMCs were grown in the presence of varying concentrations of Peptides 1, 3, or 5 for 4 days, and then harveted, lysed, and analyzed by SDS-PAGE followed by Western blot using monoclonal antibodies that specifically bind HCV NS3 protease. The blots were then stripped and probed with antibodies for SHP-1 as a loading control.

NS3 and wt NS4A = NS3 and wt NS4A (Hepatitis C virus genotype 1a, UniProt P27958); assay: Inhibition of cleavage of 5A-pNA by NS3 and wt NS4A; type: biochemical, HCV; conditions: for inhibition of cleavage of 5A-pNA by NS3 and wt NS4A: FIG. 12
Procedure: Again, lower case letters indicate the D-amino acid. Cha represents cyclohexylalanine. The peptides were assayed for inhibition of cleavage of 5A-pNA by NS3 and wt NS4A.

NS3 protease = NS3 protease (Hepatitis C virus genotype 1a, UniProt P27958); assay: Rates of NS3 in the presence of short NS4A peptides; type: biochemical, HCV; conditions: substrate 5A-pNA subsaturating; 66 to 360 μM peptide
Procedure: The ability of the short peptides to activate the NS3 protease was tested at several concentrations between 66 and 360 μM peptide. The concentration of substrate 5A-pNA was subsaturating.

T1 sequence (P27958 1027-1208): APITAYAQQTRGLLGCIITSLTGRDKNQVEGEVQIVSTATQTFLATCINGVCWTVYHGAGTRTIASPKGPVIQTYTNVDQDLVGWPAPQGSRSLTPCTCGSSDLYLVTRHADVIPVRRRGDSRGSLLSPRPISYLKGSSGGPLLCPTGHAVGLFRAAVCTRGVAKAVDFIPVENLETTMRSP
T2 sequence (P27958 1027-1207): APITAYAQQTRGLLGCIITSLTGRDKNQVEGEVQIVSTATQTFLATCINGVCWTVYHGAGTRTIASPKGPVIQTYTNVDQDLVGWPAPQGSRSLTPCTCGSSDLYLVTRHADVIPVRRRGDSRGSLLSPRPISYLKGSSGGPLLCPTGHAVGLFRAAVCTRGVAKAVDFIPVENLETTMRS
NS3 protease, sequence (P27958 1027-1207): as above
NS3 and wt NS4A, sequence (P27958 1027-1207): as above

In the case of KKGSCVIVGRIVLSGK [Peptide V23C], the Kd (HCV NS3 protease domain) is reported as 4.8 µM, the kcat (NS3 [1]) is reported as 0.0197 ± 0.00017 s⁻¹ and the kcat (NS3 [2]) is reported as 0.124 ± 0.00033 s⁻¹.

With `CC[C@H](C)[C@H](NC(=O)[C@H](CC1CCCCC1)NC(=O)[C@H](CCCNC(=N)N)NC(=O)[C@H](NC(=O)[C@H](CC1CCCCC1)NC(=O)[C@@H](N)CCCNC(=N)N)C(C)C)C(=O)N[C@@H](CC1CCCCC1)C(N)=O` [Peptide 3, R(Cha)vR(Cha)I(Cha)-NH2] (H-R[Cha][dV]R[Cha]I[Cha]-NH2; N-terminus assumed) the “inhibition of replication of HCV in tissue culture” value (HCV) was “inhibited replication of HCV in tissue culture”, the IC50 (NS3 and wt NS4A) was 163 ± 5 µM and the “inhibition of cleavage of 5A-pNA by NS3 and wt NS4A” value (“inhibition of cleavage of 5A-pNA” below) (NS3 and wt NS4A) was “inhibited this reaction”.

In the case of KKGSFVIVGRIVLSGK [Peptide V23F], the Kd (HCV NS3 protease domain) is reported as 3.7 µM, the “FAC-MS elution (later elution = more tightly bound to NS3)” value (HCV NS3 protease domain; Val23 substituted NS4A peptides, FIG. 4) is reported as “eluted last” and the “activation of NS3 catalysed cleavage, rank among peptides mutated at the same position” value (NS3 [1]; position 23 or position 26 mutants) is reported as “poorest”. The kcat (NS3 [1]) was 0.00782 ± 0.0005 s⁻¹ and the kcat (NS3 [2]) was 0.0883 ± 0.005 s⁻¹.

For FFW(Cha)vR(Cha)-NH2 [Peptide 5], the “precipitation in the reaction mixture” value (NS3 and wt NS4A) was “caused precipitation in the reaction mixture” and the “inhibition of cleavage of 5A-pNA” value (NS3 and wt NS4A) was “inhibited this reaction”.

With `CC[C@H](C)[C@H](NC(=O)[C@H](CCCNC(=N)N)NC(=O)CNC(=O)[C@@H](NC(=O)[C@@H](NC(=O)[C@@H](NC(=O)[C@@H](NC(=O)[C@H](CO)NC(=O)CNC(=O)[C@H](CCCCN)NC(=O)[C@@H](N)CCCCN)C(C)(C)S)C(C)C)[C@@H](C)CC)C(C)C)C(=O)N[C@H](C(=O)N[C@@H](CC(C)C)C(=O)N[C@@H](CO)C(=O)NCC(=O)N[C@@H](CCCCN)C(=O)O)C(C)C` [Peptide V23Pen] (H-KKGS[Pen]VIVGRIVLSGK-OH; N-terminus and C-terminus assumed) the Kd (HCV NS3 protease domain) was 4.7 µM, the kcat (NS3 [1]) was 0.0145 ± 0.0015 s⁻¹ and the kcat (NS3 [2]) was 0.113 ± 0.01 s⁻¹.

W(Cha)vR(Cha)I(Cha)-NH2 [Peptide 1] was tested, and the “precipitation in the reaction mixture” value (NS3 and wt NS4A) was “caused precipitation in the reaction mixture” and the “inhibition of cleavage of 5A-pNA” value (NS3 and wt NS4A) was “inhibited this reaction”.

Compound VVIVGRI [VVIVGRI] has a Kd (HCV NS3 protease domain) of 103 µM and a Rate (NS3 protease) of 1.88 µmol/min/mg.

With Ac-DEMEED-OH [Ac-DEMEED-OH] the “FAC-MS elution profile (late elution indicates NS3 binding)” value (HCV NS3 protease domain; Ac-DEMEEX-OH library randomized at P1, FIG. 2) was “eluted very late” and the “FAC-MS elution time with a known protease inhibitor added to the library” value (HCV NS3 protease domain; competitive assay, FIG. 3) was “shifted forward”.

Work on VIVGRIVL [VIVGRIVL] yielded a Kd (HCV NS3 protease domain) of 88 µM and a Rate (NS3 protease) of 1.76 µmol/min/mg.

IVGRIVL [IVGRIVL] was tested, and the Kd (HCV NS3 protease domain) was 103 µM and the Rate (NS3 protease) was 1.80 µmol/min/mg.

With VGRIVL the Rate (NS3 protease) was 1.70 µmol/min/mg.

Compound KKGSLVIVGRIVLSGK [Peptide V23L] has a Kd (HCV NS3 protease domain) of 5.1 µM and a kcat (NS3 [1]) of 0.0157 ± 0.00075 s⁻¹.

In the case of “KKGSVVIVGRIVLSGK [Wild-type, KKGSVVIVGRIVLSGK, reference compound]”, the Rate (NS3 protease) is reported as 37.4 µmol/min/mg.
